Data reported in PubChem BioAssay (NCI).
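Five concentrations, 48 hours, 96-well plates. GI50 = concentration required for 50% inhibition of growth. TGI marks complete inhibition of growth.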

Columns and labels:
Assay in all cases: NCI tumour cell line growth inhibition, 48 h
[1] = tested on: SR leukemia
[2] = tested on: RPMI-8226 leukemia
[3] = tested on: MOLT-4 leukemia
[4] = tested on: SN12C renal
[5] = tested on: HT29 colon
[6] = tested on: NCI-H460 lung
[7] = tested on: PC-3 prostate
[8] = tested on: A549 NSCLC
[9] = tested on: SK-OV-3 ovarian
[10] = tested on: NCI-H23 lung
[11] = tested on: OVCAR-4 ovarian
[12] = tested on: NCI-H522 lung
[13] = tested on: SNB-75 CNS
[14] = tested on: DU-145 prostate
[15] = tested on: NCI-H226 lung
[16] = tested on: HS 578T breast
[17] = tested on: UO-31 renal
[18] = tested on: SNB-19 CNS
[19] = tested on: SK-MEL-2 melanoma
[20] = tested on: SK-MEL-28 melanoma
[21] = tested on: NCI/ADR-RES ovarian
[22] = tested on: CCRF-CEM leukemia
[23] = tested on: HL-60(TB) leukemia
[24] = tested on: HCT-15 colon
[25] = tested on: ACHN renal
[26] = tested on: U251 CNS
[27] = tested on: MDA-MB-231 breast
[28] = tested on: K-562 leukemia
[29] = tested on: SF-268 CNS
[30] = tested on: HCC-2998 colon
[31] = tested on: HOP-92 NSCLC
[32] = tested on: A498 renal
[33] = tested on: HOP-62 NSCLC
[34] = tested on: SW-620 colon
[35] = tested on: CAKI-1 renal
[36] = tested on: 786-0 renal
[37] = tested on: OVCAR-5 ovarian
[38] = tested on: UACC-62 melanoma
[39] = tested on: EKVX NSCLC
[40] = tested on: UACC-257 melanoma
[41] = tested on: LOX IMVI melanoma
[42] = tested on: OVCAR-8 ovarian
[43] = tested on: HCT-116 colon
[44] = tested on: MALME-3M melanoma
[45] = tested on: T-47D breast
[46] = tested on: KM12 colon
[47] = tested on: COLO 205 colon
[48] = tested on: MDA-MB-435
[49] = tested on: SF-539 CNS
[50] = tested on: IGROV1 ovarian
[51] = tested on: RXF 393 renal
[52] = tested on: TK-10 renal
[53] = tested on: SK-MEL-5 melanoma
[54] = tested on: SF-295 CNS
[55] = tested on: MCF7 breast
[56] = tested on: OVCAR-3 ovarian
[57] = tested on: M14 melanoma

Structure (SMILES): O=C(N=C1N(c2ccccc2)C(=O)C(=O)N1c1ccccc1)c1ccccc1
- TGI [1]: 41.4 µM
- TGI [2]: 74.9 µM
- TGI [3]: > 100 µM
- TGI [4]: 24.1 µM
- TGI [5]: 40.9 µM
- TGI [6]: 25.8 µM
- TGI [7]: 50.6 µM
- TGI [8]: 20.2 µM
- TGI [9]: 19.6 µM
- TGI [10]: 33.6 µM
- TGI [11]: 13.3 µM
- TGI [12]: 6.23 µM
- TGI [13]: 25.1 µM
- TGI [14]: 43.5 µM
- TGI [15]: 29.2 µM
- TGI [16]: 27.2 µM
- TGI [17]: 29 µM
- TGI [18]: 28.1 µM
- TGI [19]: 36.9 µM
- TGI [20]: 38.1 µM
- TGI [21]: 25.8 µM
- TGI [22]: > 100 µM
- TGI [23]: > 100 µM
- TGI [24]: 22.4 µM
- TGI [25]: 14.3 µM
- TGI [26]: 24.4 µM
- TGI [27]: 18.6 µM
- TGI [28]: > 100 µM
- TGI [29]: 50.5 µM
- TGI [30]: 23.3 µM
- TGI [31]: 20.8 µM
- TGI [32]: 39.9 µM
- TGI [33]: 23.7 µM
- TGI [34]: 28.4 µM
- TGI [35]: 31.4 µM
- TGI [36]: 12.5 µM
- TGI [37]: > 100 µM
- TGI [38]: 30.2 µM
- TGI [39]: 32.1 µM
- TGI [40]: > 100 µM
- TGI [41]: 13.6 µM
- TGI [42]: 29.6 µM
- TGI [43]: 14.4 µM
- TGI [44]: 38.4 µM
- TGI [45]: 56.5 µM
- TGI [46]: 46.9 µM
- TGI [47]: 30 µM
- TGI [48]: 99.2 µM
- TGI [49]: 26.6 µM
- TGI [50]: 23.5 µM
- TGI [51]: 13.5 µM
- TGI [52]: 33.2 µM
- TGI [53]: 32 µM
- TGI [54]: 25.3 µM

Structure (SMILES): O=C(C[Si](CC(=O)c1cccc(C(F)(F)F)c1)CC(=O)c1cccc(C(F)(F)F)c1)c1cccc(C(F)(F)F)c1
- GI50 [1]: 2.72 µM
- TGI [1]: 7.19 µM
- GI50 [2]: 2.12 µM
- TGI [2]: 5.71 µM
- GI50 [3]: 2.81 µM
- TGI [3]: 8.24 µM
- GI50 [4]: 3.03 µM
- TGI [4]: 10.1 µM
- GI50 [5]: 2.55 µM
- TGI [5]: 12 µM
- GI50 [6]: 3.18 µM
- TGI [6]: 10.4 µM
- GI50 [7]: 3.11 µM
- TGI [7]: 11 µM
- GI50 [8]: 3.39 µM
- TGI [8]: 11.3 µM
- GI50 [55]: 3.05 µM
- TGI [55]: 11.5 µM
- GI50 [10]: 3.27 µM
- TGI [10]: 15.6 µM
- GI50 [11]: 3.12 µM
- TGI [11]: 12.1 µM
- GI50 [12]: 2.6 µM
- TGI [12]: 9.01 µM
- GI50 [13]: 2.42 µM
- TGI [13]: 8.81 µM
- GI50 [14]: 4.43 µM
- TGI [14]: 14.8 µM
- GI50 [15]: 2.11 µM
- TGI [15]: 5.3 µM
- GI50 [16]: 4.51 µM
- TGI [16]: 25.9 µM
- GI50 [17]: 3.2 µM
- TGI [17]: 14.2 µM
- GI50 [56]: 3.32 µM
- TGI [56]: 10.5 µM
- GI50 [18]: 3.88 µM
- TGI [18]: 13.4 µM
- GI50 [19]: 2.28 µM
- TGI [19]: 5.29 µM
- GI50 [20]: 3.51 µM
- TGI [20]: 13.6 µM
- GI50 [21]: 3.75 µM
- TGI [21]: 15.4 µM
- GI50 [22]: 3.1 µM
- TGI [22]: 10.6 µM
- GI50 [23]: 2.52 µM
- TGI [23]: 5.99 µM
- GI50 [24]: 2.06 µM
- TGI [24]: 6.25 µM
- GI50 [25]: 2 µM
- TGI [25]: 4.94 µM
- GI50 [26]: 3.27 µM
- TGI [26]: 10.4 µM
- GI50 [27]: 2.3 µM
- TGI [27]: 4.73 µM
- GI50 [28]: 3.57 µM
- TGI [28]: 13.4 µM
- GI50 [29]: 3.8 µM
- TGI [29]: 13.9 µM
- GI50 [30]: 3.46 µM
- TGI [30]: 15 µM
- GI50 [31]: 2.15 µM
- TGI [31]: 6.43 µM
- GI50 [32]: 2.34 µM
- TGI [32]: 9.62 µM
- GI50 [33]: 3.44 µM
- TGI [33]: 12 µM
- GI50 [34]: 3.23 µM
- TGI [34]: 13.3 µM
- GI50 [57]: 3.16 µM
- TGI [57]: 10.1 µM
- GI50 [35]: 3.39 µM
- TGI [35]: 12.9 µM
- GI50 [37]: 2.19 µM
- TGI [37]: 6.51 µM
- GI50 [38]: 2.23 µM
- TGI [38]: 6.28 µM
- GI50 [39]: 3.1 µM
- TGI [39]: 11.5 µM
- GI50 [40]: 2.65 µM
- TGI [40]: 6.38 µM
- GI50 [41]: 2.94 µM
- TGI [41]: 11.4 µM
- GI50 [42]: 3.48 µM
- TGI [42]: 10.9 µM
- GI50 [43]: 2.41 µM
- TGI [43]: 8.87 µM
- GI50 [44]: 4.03 µM
- TGI [44]: 17.4 µM
- GI50 [45]: 4.48 µM
- TGI [45]: 13.9 µM
- GI50 [46]: 3.25 µM
- TGI [46]: 10.1 µM
- GI50 [47]: 1.67 µM
- TGI [47]: 3.07 µM
- GI50 [48]: 3.27 µM
- TGI [48]: 10.4 µM
- GI50 [49]: 1.85 µM
- TGI [49]: 3.85 µM
- GI50 [50]: 6.24 µM
- TGI [50]: 27.8 µM
- GI50 [51]: 2.07 µM
- TGI [51]: 4.3 µM
- GI50 [52]: 3.52 µM
- TGI [52]: 14.1 µM
- GI50 [53]: 1.63 µM
- TGI [53]: 3.03 µM
- GI50 [54]: 2.88 µM
- TGI [54]: 11.2 µM
